Values of other authors in US20230035389A1, “ANTIVIRAL COMPOSITION BASED ON EXTRACTS OF […] […] USEFUL FOR TREATING LESIONS CAUSED BY […] VIRUS” (PONTIFICIA UNIVERSIDAD CATOLICA DE CHILE, priority 2019, published 2023).

Test system: herpes simplex virus
Settings: topical, background statement

Nc1nc2c(ncn2COCCO)c(=O)[nH]1 [Acyclovir]
Reduction of the duration of herpetic lesions: 1.0 days
